Columns and labels:
rabbit = conditions: Prenatal developmental toxicity study, new zealand white, Oral, Gavage/Intubation, dose end: 19 GD
rat [1] = conditions: Chronic toxicity, sprague dawley, Oral, Feed, dose end: 104 week, group: systemic
rat [2] = conditions: Subchronic oral toxicity in rodents, sprague dawley, Feed, dose end: 90 day, group: systemic, systemic / organ weight / liver / absolute + systemic / organ weight / liver / relative to body weight + systemic / pathology microscopic / …
rat [3] = conditions: Combined chronic toxicity/carcinogenicity, sprague dawley, Oral, Feed, dose end: 104 week, group: systemic
mouse [4] = conditions: Carcinogenicity, cd1, Oral, Feed, dose end: 104 week, group: systemic
rat [5] = conditions: Prenatal developmental toxicity study, sprague dawley, Oral, Gavage/Intubation, dose end: 15 GD
rat [6] = conditions: Multigenerational reproductive toxicity study, sprague dawley, Oral, Feed, dose end: 2 generation
dog [7] = conditions: Chronic toxicity, beagle, Oral, Capsule, dose end: 52 week, group: systemic
dog [8] = conditions: Subchronic oral toxicity in nonrodent, beagle, Capsule, dose end: 90 day, group: systemic, systemic / clinical chemistry / alkaline phosphatase (alp/alk) / alkaline phosphatase (alp/alk) + systemic / organ weight / liver / relative…
mouse [9] = conditions: Carcinogenicity; cd1; Oral; Feed; dose end: 104 week; group: systemic; systemic / organ weight / liver / relative to body weight + systemic / pathology gross / liver / discolored + systemic / pathology …
rat [10] = conditions: Prenatal developmental toxicity study, sprague dawley, Oral, Gavage/Intubation, dose end: 15 GD; remark: listed apart in the source
rat [11] = conditions: Combined chronic toxicity/carcinogenicity, sprague dawley, Dermal, Topical, dose end: 24 month, group: systemic
rat [12] = conditions: Subchronic oral toxicity in rodents, sprague dawley, Feed, dose end: 14 week, group: systemic
rat [13] = conditions: Subchronic oral toxicity in rodents, fischer, Gavage/Intubation, dose end: 13 week, group: systemic
mouse [14] = conditions: Subchronic oral toxicity in rodents, b6c3f1, Gavage/Intubation, dose end: 13 week, group: systemic
rat [15] = conditions: Subchronic oral toxicity in rodents, sprague dawley, Feed, dose end: 90 day
dog [16] = conditions: Chronic toxicity, beagle, Oral, Capsule, dose end: 12 month, group: systemic
rat [17] = conditions: Prenatal developmental toxicity study, sprague dawley, Oral, Gavage/Intubation, dose end: 15 GD; remark: listed apart in the source
rat [18] = conditions: Combined chronic toxicity/carcinogenicity, sprague dawley, Oral, Feed, dose end: 24 month, group: systemic
rat [19] = conditions: Multigenerational reproductive toxicity study, sprague dawley, Oral, Feed, dose end: 2 generation; remark: listed apart in the source
[20] = group: developmental, developmental / developmental malformation / bone / absent + developmental / developmental malformation / bone / fused + developmental / …
[21] = group: maternal, systemic / in life observation / food consumption / food consumption + systemic / pathology microscopic / liver / apoptosis + systemic / …
[22] = systemic / pathology microscopic / testes / atrophy
[23] = systemic / pathology microscopic / testes / atrophy + systemic / organ weight / epididymis / relative to body weight + systemic / organ …
[24] = systemic / pathology microscopic / liver / dilatation + systemic / pathology microscopic / liver / inflammation + systemic / pathology …
[25] = systemic / pathology microscopic / liver / pigmentation + systemic / pathology microscopic / liver / vacuolization
[26] = systemic / pathology microscopic / liver / pigmentation + systemic / pathology microscopic / liver / vacuolization + systemic / pathology …
[27] = group: developmental, developmental / developmental malformation / bone / incomplete ossification
[28] = group: maternal, systemic / in life observation / body weight / body weight + systemic / in life observation / clinical signs / ataxia + systemic / in life …
[29] = group: offspring, systemic / in life observation / body weight / offspring (pup) weight gain + developmental / developmental landmark / eye opening / eye …
[30] = group: parental, systemic / pathology microscopic / liver / fatty change
[31] = group: parental, systemic / pathology microscopic / liver / fatty change + systemic / in life observation / body weight / body weight + systemic / in life …
[32] = group: reproductive, reproductive / offspring survival early / litter size / litter size
[33] = systemic / clinical chemistry / glucose / glucose
[34] = group: developmental, developmental / developmental malformation / bone / delayed ossification + developmental / developmental malformation / bone / incomplete …
[35] = group: maternal, systemic / in life observation / body weight / body weight gain + systemic / in life observation / clinical signs / urogenital staining + …
[36] = systemic / pathology microscopic / skin / hyperkeratosis
[37] = systemic / pathology microscopic / skin / hyperkeratosis + systemic / pathology microscopic / skin / acanthosis + systemic / clinical …
[38] = systemic / in life observation / body weight / body weight + systemic / in life observation / body weight / body weight gain + systemic / …
[39] = systemic / clinical chemistry / urea nitrogen / urea nitrogen + systemic / hematology / neutrophils / neutrophils + systemic / in life …
[40] = systemic / in life observation / body weight / body weight + systemic / in life observation / body weight / body weight gain + systemic / in…
[41] = systemic / hematology / hemoglobin (hgb) / hemoglobin (hgb)
[42] = systemic / hematology / hemoglobin (hgb) / hemoglobin (hgb) + systemic / hematology / erythrocyte (rbc) count differential / erythrocyte (…
[43] = group: cholinesterase, cholinesterase / cholinesterase / cholinesterase / cholinesterase (che)
[44] = group: systemic, systemic / hematology / mean corpuscular (cell) volume (mcv) / mean corpuscular (cell) volume (mcv) + systemic / hematology / mean …
[45] = group: systemic, systemic / organ weight / thyroid gland / absolute
[46] = systemic / clinical chemistry / alkaline phosphatase (alp/alk) / alkaline phosphatase (alp/alk) + systemic / organ weight / liver / absolute…
[47] = group: developmental, developmental / developmental malformation / heart / [other] + developmental / developmental malformation / heart / defect a-v septum
[48] = group: developmental, developmental / developmental malformation / heart / [other] + developmental / developmental malformation / heart / defect a-v septum + …
[49] = group: maternal, reproductive / reproductive performance / resorptions / resorptions + reproductive / offspring survival early / litter size / litter size + …
[50] = systemic / pathology microscopic / kidney / nephropathy + systemic / hematology / hemoglobin (hgb) / hemoglobin (hgb) + systemic / …
[51] = group: offspring, developmental / offspring survival late / viability index / viability index + systemic / in life observation / body weight / offspring (pup…
[52] = group: parental, systemic / in life observation / body weight / body weight + systemic / in life observation / body weight / body weight gain + systemic / in…
[53] = group: reproductive, reproductive / offspring survival early / birth index / live birth index

## O=[N+]([O-])c1cc(C(F)(F)F)c(Cl)c([N+](=O)[O-])c1Nc1ncc(C(F)(F)F)cc1Cl [Fluazinam]
rabbit; [20]
  LEL: 12 mg/kg/day
  LOAEL: 12 mg/kg/day
  NEL: 7 mg/kg/day
  NOAEL: 7 mg/kg/day
rabbit; group: maternal, reproductive / reproductive performance / aborted / aborted
  LEL: 4 mg/kg/day
rabbit; [21]
  LOAEL: 7 mg/kg/day
  NEL: 2 mg/kg/day
  NOAEL: 4 mg/kg/day
Rat [1]; [22]
  LOAEL: 3.9 mg/kg/day
Rat [1]; [23]
  LEL: 3.9 mg/kg/day
  NEL: 1.9 mg/kg/day
  NOAEL: 1.9 mg/kg/day
Rat [2]
  LEL: 38 mg/kg/day
  LOAEL: 38 mg/kg/day
  NEL: 3.8 mg/kg/day
  NOAEL: 3.8 mg/kg/day
Rat [3]; [24]
  LOAEL: 3.8 mg/kg/day
  NOAEL: 0.38 mg/kg/day
Rat [3]; [22]
  LEL: 0.04 mg/kg/day
  NEL: < 0.04 mg/kg/day
Mouse [4]; [25]
  LEL: 10.7 mg/kg/day
  LOAEL: 10.7 mg/kg/day
Mouse [4]; [26]
  NEL: 1.12 mg/kg/day
  NOAEL: 1.12 mg/kg/day
Rat [5]; [27]
  LEL: 100 mg/kg/day
  LOAEL: > 1000 mg/kg/day
  NEL: 10 mg/kg/day
  NOAEL: ≥ 1000 mg/kg/day
Rat [5]; [28]
  LEL: 1000 mg/kg/day
  LOAEL: > 1000 mg/kg/day
  NEL: 100 mg/kg/day
  NOAEL: ≥ 1000 mg/kg/day
Rat [6]; group: offspring, systemic / in life observation / body weight / offspring (pup) weight gain
  LOAEL: 47.3 mg/kg/day
Rat [6]; [29]
  LEL: 47.3 mg/kg/day
  NEL: 9.7 mg/kg/day
  NOAEL: 9.7 mg/kg/day
Rat [6]; [30]
  LEL: 9.7 mg/kg/day
  LOAEL: 9.7 mg/kg/day
Rat [6]; [31]
  NEL: 1.9 mg/kg/day
  NOAEL: 1.9 mg/kg/day
Rat [6]; [32]
  LEL: 47.3 mg/kg/day
  LOAEL: 47.3 mg/kg/day
  NEL: 9.7 mg/kg/day
  NOAEL: 9.7 mg/kg/day
Dog [7]; [33]
  LEL: 1 mg/kg/day
  NEL: < 1 mg/kg/day
Dog [7]; systemic / in life observation / clinical signs / nasal dryness + systemic / pathology microscopic / stomach / hyperplasia
  LOAEL: 10 mg/kg/day
Dog [7]; systemic / in life observation / clinical signs / nasal dryness + systemic / pathology microscopic / stomach / hyperplasia + systemic / …
  NOAEL: 1 mg/kg/day
Dog [8]
  LEL: 100 mg/kg/day
  LOAEL: 100 mg/kg/day
  NEL: 10 mg/kg/day
  NOAEL: 10 mg/kg/day
Mouse [9]
  LEL: 126 mg/kg/day
  LOAEL: 126 mg/kg/day
  NEL: < 126 mg/kg/day
  NOAEL: < 126 mg/kg/day
Rat [10]; [34]
  LOAEL: 250 mg/kg/day
  NEL: 10 mg/kg/day
  NOAEL: 50 mg/kg/day
Rat [10]; group: developmental, developmental / developmental malformation / bone / full supernumerary
  LEL: 50 mg/kg/day
Rat [10]; [35]
  LEL: 250 mg/kg/day
  LOAEL: 250 mg/kg/day
  NEL: 50 mg/kg/day
  NOAEL: 50 mg/kg/day

## CCC(C)OC(=O)N1CCCCC1CCO (stereo unspecified) [Icaridin]
Rat [11]; [36]
  LEL: 50 mg/kg/day
  NEL: < 50 mg/kg/day
Rat [11]; [37]
  LOAEL: > 200 mg/kg/day
  NOAEL: ≥ 200 mg/kg/day
Rat [12]; [38]
  LOAEL: 1030 mg/kg/day
  NEL: 100 mg/kg/day
  NOAEL: 301 mg/kg/day
Rat [12]; systemic / organ weight / kidney / relative to body weight + systemic / clinical chemistry / alanine aminotransferase (alt/sgpt) / alanine …
  LEL: 149 mg/kg/day

## O=C1OC(=O)c2c(Cl)c(Cl)c(Cl)c(Cl)c21 [Tetrachlorophthalic anhydride]
Rat [13]; [39]
  LOAEL: > 1500 mg/kg/day
  NOAEL: ≥ 1500 mg/kg/day
Rat [13]; [40]
  LEL: 94 mg/kg/day
  NEL: < 94 mg/kg/day
Mouse [14]; [41]
  LEL: 94 mg/kg/day
  NEL: < 94 mg/kg/day
Mouse [14]; [42]
  LOAEL: > 1500 mg/kg/day
  NOAEL: ≥ 1500 mg/kg/day

## C#CCN1C(=O)COc2cc(F)c(N3C(=O)C4=C(CCCC4)C3=O)cc21 [Flumioxazin]
Rat [15]; [43]
  LEL: 218 mg/kg/day
  LOAEL: > 218 mg/kg/day
  NEL: 72.9 mg/kg/day
  NOAEL: ≥ 218 mg/kg/day
Rat [15]; [44]
  LOAEL: 22.4 mg/kg/day
  NOAEL: 2.2 mg/kg/day
Rat [15]; [45]
  LEL: 1.9 mg/kg/day
  NEL: < 1.9 mg/kg/day
Dog [16]; [46]
  LOAEL: 1000 mg/kg/day
  NEL: 10 mg/kg/day
  NOAEL: 100 mg/kg/day
Dog [16]; systemic / organ weight / pituitary gland / absolute + systemic / organ weight / prostate / absolute + systemic / pathology microscopic / …
  LEL: 100 mg/kg/day
Rat [17]; [47]
  LEL: 10 mg/kg/day
  LOAEL: 10 mg/kg/day
Rat [17]; [48]
  NEL: 3 mg/kg/day
  NOAEL: 3 mg/kg/day
Rat [17]; group: maternal, reproductive / reproductive performance / resorptions / resorptions
  NEL: 10 mg/kg/day
Rat [17]; [49]
  LEL: 30 mg/kg/day
  LOAEL: > 30 mg/kg/day
  NOAEL: ≥ 30 mg/kg/day
Rat [18]; systemic / pathology microscopic / kidney / nephropathy
  LOAEL: 18 mg/kg/day
Rat [18]; systemic / pathology microscopic / kidney / nephropathy + systemic / hematology / hemoglobin (hgb) / hemoglobin (hgb) + systemic / pathology…
  LEL: 18 mg/kg/day
Rat [18]; [50]
  NEL: 1.8 mg/kg/day
  NOAEL: 1.8 mg/kg/day
Rat [19]; [51]
  LEL: 12.7 mg/kg/day
  NEL: 6.3 mg/kg/day
Rat [19]; group: offspring, systemic / in life observation / body weight / offspring (pup) weight
  LOAEL: 15.1 mg/kg/day
Rat [19]; group: offspring, systemic / in life observation / body weight / offspring (pup) weight + developmental / offspring survival late / lactation index / …
  NOAEL: 7.6 mg/kg/day
Rat [19]; group: parental, systemic / in life observation / body weight / body weight
  LOAEL: 12.7 mg/kg/day
Rat [19]; [52]
  NEL: 6.3 mg/kg/day
  NOAEL: 6.3 mg/kg/day
Rat [19]; group: parental, systemic / in life observation / body weight / body weight + systemic / organ weight / epididymis / absolute + systemic / organ weight / …
  LEL: 12.7 mg/kg/day
Rat [19]; [53]
  LEL: 12.7 mg/kg/day
  LOAEL: 12.7 mg/kg/day
  NEL: 6.3 mg/kg/day
  NOAEL: 6.3 mg/kg/day

From EPA's ToxRefDB 2
